Laboratory results from patent US9695155B2, “Herbicidal substituted pyrimidinyloxy benzene compounds” (E. I. DU PONT DE NEMOURS AND COMPANY, priority 2013, dated 2017).

How the values were obtained:
barnyardgrass [1] = experiment: Test C postemergence; type: in vivo, Echinochloa crus-galli; settings: for Plant response rating, Barnyardgrass: Postemergence
Procedure, shortened: (§1)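 Whole-plant greenhouse test with surfactant-containing solvent formulation, applied preemergence to sown loam–sand pots or postemergence to 2–18 cm plants. Scored by eye 13 to 15 days on, 0–100 scale.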

blackgrass [2] = experiment: Test C preemergence; type: in vivo, Alopecurus myosuroides; settings: for Blackgrass plant response rating: preemergence
Procedure, shortened: as §1

corn [3] = experiment: Test C preemergence; type: in vivo, Zea mays; settings: for Corn plant response rating: preemergence
Procedure, shortened: as §1

pigweed = experiment: Test C postemergence; type: in vivo, Amaranthus retroflexus; settings: for Plant response rating, Pigweed: Postemergence, scale 0 to 100 (0 no effect, 100 complete control)
Procedure, shortened: as §1

waterhemp [4] = experiment: Test C postemergence; type: in vivo, Amaranthus rudis; settings: for Plant response rating, Waterhemp: Postemergence, scale 0 to 100 (0 no effect, 100 complete control)
Procedure, shortened: as §1

barnyardgrass [5] = experiment: Test A preemergence; type: in vivo, Echinochloa crus-galli
Procedure, shortened: (§2)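 Injury scores run from 0, no effect, to 100, complete control, judged by eye against untreated plants roughly 10 days after treatment. Chemicals carried a surfactant in a non-phytotoxic solvent and went onto loam–sand soil preemergence or onto one- to two-leaf seedlings postemergence.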

giant foxtail = experiment: Test A preemergence; type: in vivo, Setaria faberii
Procedure, shortened: as §2

ragweed = experiment: Test C preemergence; type: in vivo, Ambrosia elatior; settings: for Ragweed plant response rating: preemergence
Procedure, shortened: as §1

blackgrass [6] = experiment: Test C postemergence; type: in vivo, Alopecurus myosuroides; settings: for Plant response rating, Blackgrass: Postemergence
Procedure, shortened: as §1

corn [7] = experiment: Test C postemergence; type: in vivo, Zea mays; settings: for Plant response rating, Corn: Postemergence
Procedure, shortened: as §1

barnyardgrass [8] = experiment: Test C preemergence; type: in vivo, Echinochloa crus-galli; settings: for Barnyardgrass plant response rating: preemergence
Procedure, shortened: as §1

soybean = experiment: Test C preemergence; type: in vivo, Glycine max; settings: for Soybean plant response rating: preemergence
Procedure, shortened: as §1

morningglory = experiment: Test C preemergence; type: in vivo, Ipomoea coccinea; settings: for Morningglory plant response rating: preemergence
Procedure, shortened: as §1

lambsquarters = experiment: Test C postemergence; type: in vivo, Chenopodium album; settings: for Plant response rating, Lambsquarters: Postemergence, scale 0 to 100 (0 no effect, 100 complete control)
Procedure, shortened: as §1

waterhemp [9] = experiment: Test C preemergence; type: in vivo, Amaranthus rudis; settings: for Waterhemp plant response rating: preemergence
Procedure, shortened: as §1

Italian ryegrass = experiment: Test C postemergence; type: in vivo, Lolium multiflorum; settings: for Plant response rating, Ryegrass, Italian: Postemergence, scale 0 to 100 (0 no effect, 100 complete control)
Procedure, shortened: as §1

oilseed rape = experiment: Test C preemergence; type: in vivo, Brassica napus; settings: for Oilseed Rape plant response rating: preemergence
Procedure, shortened: as §1

[10] = 16 g ai/ha, postemergence, visual rating, scale 0 to 100 (0 no effect, 100 complete control), 13 to 15 days
[11] = 31 g ai/ha, scale 0 to 100 (0 no effect, 100 complete control), 13 to 15 days
[12] = 62 g ai/ha, scale 0 to 100 (0 no effect, 100 complete control)
[13] = 16 g ai/ha, scale 0 to 100 (0 no effect, 100 complete control)
[14] = 62 g ai/ha, scale 0 (no effect) to 100 (complete control)
[15] = 125 g ai/ha, scale 0 (no effect) to 100 (complete control)
[16] = Preemergence, 31 g ai/ha, scale 0 to 100, 0 no effect, 100 complete control
[17] = 125 g ai/ha, 0 to 100 scale where 0 is no effect and 100 is complete control
[18] = 500 g ai/ha, 0 to 100 scale, 0 no effect, 100 complete control, approx. 10 days

CCOc1cn(-c2c(Br)cccc2Oc2ncc(Cl)cn2)nn1 [Compound 84]
Barnyardgrass plant response rating (barnyardgrass [1]; [10]): 0 | Plant response rating (0 to 100), Barnyardgrass (barnyardgrass [1]; 125 g ai/ha, postemergence): 15 | Plant response rating, Barnyardgrass (barnyardgrass [1]; [11]): 0 | Plant response rating, Barnyardgrass (barnyardgrass [1]; [12]): 0 | Blackgrass plant response rating (blackgrass [2]; [13]): 0 | Blackgrass plant response rating (blackgrass [2]; [14]): 40 | Blackgrass plant response rating (blackgrass [2]; [15]): 85 | Plant response rating, Blackgrass (blackgrass [2]; [16]): 5 | Corn plant response rating (corn [3]; [13]): 0 | Corn plant response rating (corn [3]; [14]): 0 | Corn plant response rating (corn [3]; [15]): 5 | Plant response rating, Corn (corn [3]; [16]): 0 | Plant response rating (0 to 100), Pigweed (pigweed; 125 g ai/ha, postemergence): 85 | Plant response rating, Pigweed (pigweed; 31 g ai/ha, 13 to 15 days): 50 | Plant response rating, Pigweed (pigweed; 62 g ai/ha): 80 | Plant response rating (0 to 100), Waterhemp (waterhemp [4]; 125 g ai/ha, postemergence): 70 | Plant response rating, Waterhemp (waterhemp [4]; 31 g ai/ha, 13 to 15 days): 50 | Plant response rating, Waterhemp (waterhemp [4]; 62 g ai/ha): 70 | Plant response rating, Barnyardgrass (barnyardgrass [5]; [17]): 50 | Barnyardgrass plant response rating (barnyardgrass [5]; [18]): 90 | Plant response rating, Foxtail, Giant (giant foxtail; [17]): 70 | Foxtail, Giant plant response rating (giant foxtail; [18]): 100 | Ragweed plant response rating (ragweed; [13]): 0 | Ragweed plant response rating (ragweed; [14]): 60 | Ragweed plant response rating (ragweed; [15]): 85 | Plant response rating, Ragweed (ragweed; [16]): 60 | Blackgrass plant response rating (blackgrass [6]; [10]): 5 | Plant response rating (0 to 100), Blackgrass (blackgrass [6]; 125 g ai/ha, postemergence): 20 | Plant response rating, Blackgrass (blackgrass [6]; [11]): 5 | Plant response rating, Blackgrass (blackgrass [6]; [12]): 5 | Corn plant response rating (corn [7]; [10]): 0 | Plant response rating (0 to 100), Corn (corn [7]; 125 g ai/ha, postemergence): 5 | Plant response rating, Corn (corn [7]; [11]): 0 | Plant response rating, Corn (corn [7]; [12]): 0 | Barnyardgrass plant response rating (barnyardgrass [8]; [13]): 0 | Barnyardgrass plant response rating (barnyardgrass [8]; [14]): 40 | Barnyardgrass plant response rating (barnyardgrass [8]; [15]): 85 | Plant response rating, Barnyardgrass (barnyardgrass [8]; [16]): 25 | Soybean plant response rating (soybean; [13]): 0 | Soybean plant response rating (soybean; [14]): 60 | Soybean plant response rating (soybean; [15]): 70 | Plant response rating, Soybean (soybean; [16]): 20 | Morningglory plant response rating (morningglory; [13]): 0 | Morningglory plant response rating (morningglory; [14]): 25 | Morningglory plant response rating (morningglory; [15]): 100 | Plant response rating, Morningglory (morningglory; [16]): 10 | Plant response rating (0 to 100), Lambsquarters (lambsquarters; 125 g ai/ha, postemergence): 80 | Plant response rating, Lambsquarters (lambsquarters; 31 g ai/ha, 13 to 15 days): 30 | Plant response rating, Lambsquarters (lambsquarters; 62 g ai/ha): 55 | Waterhemp plant response rating (waterhemp [9]; [13]): 100 | Waterhemp plant response rating (waterhemp [9]; [14]): 100 | Waterhemp plant response rating (waterhemp [9]; [15]): 100 | Plant response rating, Waterhemp (waterhemp [9]; [16]): 75 | Plant response rating (0 to 100), Ryegrass, Italian (Italian ryegrass; 125 g ai/ha, postemergence): 0 | Plant response rating, Ryegrass, Italian (Italian ryegrass; 31 g ai/ha, 13 to 15 days): 0 | Plant response rating, Ryegrass, Italian (Italian ryegrass; 62 g ai/ha): 0 | Oilseed Rape plant response rating (oilseed rape; [13]): 50 | Oilseed Rape plant response rating (oilseed rape; [14]): 100 | Oilseed Rape plant response rating (oilseed rape; [15]): 100 | Plant response rating, Oilseed Rape (oilseed rape; [16]): 85
